Experimental data published in US7501395B2, “Method of screening for antianxiety drugs” (Eisai R & D Management Co., Ltd., priority 2005, dated 2009).
Ends that are not written are not given here.

What was measured:
C57BL/6NCrj mice [1] = assay: light-dark exploration test, SB-334867 (Example 3); type: in vivo
Experimental: Specifically, two types of solutions, 0.50 nmol/μl and 1.50 nmol/μl, were prepared. The artificial cerebrospinal fluid (aCSF) was used alone as a negative control.
The position of the inserted cannula was also confirmed in the same manner.
The following three subject groups were tested.
The test apparatus consisted of a dark compartment (depth 10 cm×width 15 cm length 20 cm) and a light compartment (depth 20 cm×width 15 cm×length 20 cm). Specifically, the dark compartment was made of a black plastic material with a lid on top whereas the light compartment was made of a white plastic material with an open top. Both of the light and dark compartments were connected via a black plastic tunnel (depth 7 cm×width 10 cm×length 4.5 cm) that allows access to both compartments.
At the end of the test, the total time spent in the light compartment was calculated for each test animal, and the results were expressed as “average time+SEM” for each test subject (see FIG. 4). […]

C57BL/6NCrj mice [2] = assay: light-dark exploration test, orexin-A (Example 1); type: in vivo; details: for time spent in the light compartment, difference from the aCSF administration group: intracerebroventricular, mice
Experimental: C57BL/6NCrj mice (male, 25 to 30 g, Charles River, Japan) were used for the light-dark exploration test. Ten mice were bred per cage.
(§1) Orexin-A (Peptide Institute Inc., Osaka, Japan) was dissolved in an artificial cerebrospinal fluid (aCSF: glucose 10 mM, KCl 2 mM, NaCl 115 mM, CaCl2 2.5 mM, MgSO4 1.2 mM, NaHCO3 25 mM, KH2PO4 2.2 mM; pH 7. 4) to prepare solutions at various concentrations (0.1 nmol/μl, 0.3 nmol/μl, 1.0 nmol/μl, 3.0 nmol/μl). The artificial cerebrospinal fluid was used alone as a negative control.
(§2) A stainless-steel injection needle was used that can be inserted into the lateral ventricle to a point 0.5 mm deeper than the tip of the guide cannula for intracerebroventricularly administering an orexin-A solution. The amounts of orexin-A solution were 2 μl and 5 μl for mice and rats, respectively. A microsyringe (705N 50 μl, Hamilton, Nevada, USA) was connected to a reflux pump (CMA100, BAS Inc., Tokyo, Japan) for injection at a precisely constant rate (1 μl/min for mice and 2.5 μl/min for rats).
The following four subject groups were tested.
The test apparatus consisted of two compartments, namely a dark compartment (depth 10 cm×width 15 cm×length 20 cm) and a light compartment (depth 20 cm×width 15 cm×length 20 cm). Specifically, the dark compartment was made using a black plastic material with a lid on top whereas the light compartment was made using a white plastic material with an open top. Both of the light and dark compartments were connected via a black plastic tunnel (depth 7 cm×width 10 cm×length 4.5 cm) that allows access to both compartments.
The illumination of the test room was set to 150 lux. The test animals were habituated to an illumination of 10 lux in another room for more than 3 hours before starting the test (except upon administration). This test was conducted between 13:00 to 16:00. […]
At the end of the test, the total time spent in the light compartment was calculated for each test animal, and the results were expressed as “average time+SEM” (see FIG. 1). […]

C57BL/6NCrj mice [3] = assay: elevated plus maze test, orexin-A (Example 2); type: in vivo; details: 1.0 nmol orexin-A, intracerebroventricular, vs aCSF administration group, p<0.05
Experimental: C57BL/6NCrj mice (male, 25 to 30 g, Charles River, Japan) were used. Ten mice were bred per cage.
as §1, with “7.4)” for “7. 4)”, “a solution” for “solutions”, “a predetermined concentration (1.0” for “various concentrations (0.1 nmol/μl, 0.3 nmol/μl, 1.0 nmol/μl, 3.0”
A stainless-steel injection needle was used that can be inserted into the lateral ventricle at a point 0.5 mm deeper than the tip of the guide cannula for intracerebroventricular administration of the orexin-A solution. The amount of the orexin-A solution was 2 μl. A microsyringe (705N 50 μl, Hamilton, Nevada, USA) was connected to a reflux pump (CMA100, BAS Inc., Tokyo, Japan) for injection at a precisely constant rate (1 μl/min).
The following two subject groups were tested.
The elevated plus maze test was basically carried out according to the test procedure described in S. Pellow et al. (J. Neurosci. Methods, vol. 14 (1985), p-149-167). […]
At the end of the test, the total time spent in the open arms was calculated for each test animal, and the results were expressed as “average time+SEM” for each test subject (see FIG. 3). […]

WISTAR rats = assay: elevated plus maze test, orexin-A (Example 1); type: in vivo; details: intracerebroventricular administration to rats, 0.1 to 3.0 nmol, 15 minutes before test; 5 min test
Experimental: WISTAR rats (male, 300 to 400 g, Charles River, Japan) were used for the elevated plus maze test. Two […] were bred per cage.
as §1, §2
The following five subject groups were tested. […]
At the end of the test, the total time spent in the open arms was calculated for each test animal, and the results were expressed as “average time+SEM” for each test subject (see FIG. 2). […]

mouse = details: intracerebroventricular administration to a mouse; cited from earlier work
orexin receptor-2 (OX2R) = target: T1, orexin receptor-2 (OX2R) (Homo sapiens, UniProt O43614); details: orexin-A compared with orexin-B; cited from earlier work
T1 sequence (O43614 1-444): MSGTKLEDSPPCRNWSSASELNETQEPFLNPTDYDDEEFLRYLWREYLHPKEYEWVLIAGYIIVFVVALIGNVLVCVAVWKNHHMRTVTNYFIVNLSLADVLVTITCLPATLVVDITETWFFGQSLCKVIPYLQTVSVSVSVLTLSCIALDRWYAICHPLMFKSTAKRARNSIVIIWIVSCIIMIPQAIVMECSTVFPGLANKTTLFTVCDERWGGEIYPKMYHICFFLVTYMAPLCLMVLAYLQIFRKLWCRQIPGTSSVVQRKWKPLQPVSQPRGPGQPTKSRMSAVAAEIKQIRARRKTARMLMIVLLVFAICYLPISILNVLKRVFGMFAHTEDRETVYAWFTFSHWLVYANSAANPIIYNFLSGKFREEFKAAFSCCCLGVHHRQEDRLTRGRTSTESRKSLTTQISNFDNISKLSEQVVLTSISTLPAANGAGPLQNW

For `Cc1nc2ccc(NC(=O)Nc3ccnc4cccnc34)cc2o1` [SB-334867, 1-(2-methylbenzoxazole 6-yl)-3-[1,5]naphthyridine-4-yl urea], the “time spent in the light compartment” value (C57BL/6NCrj mice [1]; intracerebroventricular administration to mice, 1 nmol and 3 nmol, 15 minutes before test, 5 min test) was “lengthened time spent in the light compartment dosage-dependently” and the “assessment result: action on anxiety” value (C57BL/6NCrj mice [1]; light-dark exploration test, mice, intracerebroventricular) was “anxiogenic action”.

With “orexin-A: neuropeptide, endogenous orexin receptor ligand; 33 amino acids with two disulfide bonds; from Peptide Institute Inc. (QPLPDCCRQKTCSCRLYELLHGAGNHAAGILTL; disulfide (positions not given here); ends not checked; also: two disulfide bonds, pairing not given here; UniProt O43612 34-66, looked up)” the “time spent in the light compartment, difference from the aCSF administration group” value (C57BL/6NCrj mice [2]; 0.1 nmol orexin-A administration group) was “significant difference”, the “time spent in the light compartment, difference from the aCSF administration group” value (C57BL/6NCrj mice [2]; 1.0 nmol orexin-A administration group) was “significant difference” and the “time spent in the light compartment” value (C57BL/6NCrj mice [2]; intracerebroventricular administration to mice 15 minutes before test, 5 min test, vs aCSF) was “significantly shortened”. The “time spent in the open arms (elevated plus maze test, FIG. 3)” value (C57BL/6NCrj mice [3]) was “significantly shortened”, the “time spent in the open arms” value (WISTAR rats) was “shortened volume-dependently” and the “stress-like behaviors such as face washing, grooming, searching and burrowing” value (mouse) was “increases”.

For “orexin-B: neuropeptide, endogenous orexin receptor ligand comprising 28 amino acids”, the “binding affinity of OX2R” value (orexin receptor-2 (OX2R)) is listed as “generally the same level”.
